Experimental data: PMC3433420 (PLoS ONE, 2012)
Where “and” joins values, the source holds several entries; their conditions need not be identical. Equal values may be shown once. Read-outs that look alike come from different tables or passages of the source. Residues, ends and D or L forms follow the SMILES beside them.

Experiments:
[1] = target: PIK3R2-NC tandem SH2 domains (Homo sapiens, UniProt O00459); assay: FP saturation binding assay
SHC2-PTB domain = SHC2-PTB domain (Homo sapiens, UniProt P98077); assay: FP saturation binding assay
SHC2-PTB domain, sequence (P98077 147-329 limits assumed): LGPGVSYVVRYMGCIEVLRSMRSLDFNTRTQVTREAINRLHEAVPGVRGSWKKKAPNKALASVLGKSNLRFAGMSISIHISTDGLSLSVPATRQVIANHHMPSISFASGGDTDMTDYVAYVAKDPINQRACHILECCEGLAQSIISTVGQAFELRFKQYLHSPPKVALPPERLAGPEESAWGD

PIK3R1-N SH2 domain [2] = target: T1, PIK3R1-N SH2 domain (Homo sapiens, UniProt P27986); assay: Surface plasmon resonance (Biacore 3000); format: binding; conditions: SPR, NA = no interaction detected
T1 construct: thioredoxin; made in house; host or cells: E. coli BL21(DE3)pLysS
T1 sequence (P27986 333-428 limits assumed): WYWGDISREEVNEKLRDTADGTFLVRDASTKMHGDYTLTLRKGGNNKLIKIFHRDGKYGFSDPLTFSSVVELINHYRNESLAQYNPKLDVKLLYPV
Method: (§1) All SPR experiments were performed using Biacore 3000 (GE HealthCare, Piscataway, NJ) instrumentation. 6X His-tagged SH2 domain proteins were immobilized on a nitriloacetic acid (NTA) sensor chip (GE HealthCare, Piscataway, NJ) charged with Ni^2+ ions. Dye-free ErbB family peptides were applied to the sensor chip in a single flow cell in solution phase (while the other flow cell was used as a reference control) and binding events were measured under equilibrium conditions. FP false positive [drawing 7] (FPR), false discovery [drawing 8] (FDR), and false negative [drawing 9] (FNR) rates were calculated by defining true positives (TP) as interactions detected by both FP and SPR, true negatives (TN) as interactions detected by neither FP nor SPR; false positives as interactions identified by FP but not validated by SPR; and false negatives (FN) as interactions missed by FP but detected by SPR. Additional details for all methods are provided in the Supplementary Methods.
(§2) Fresh protein stocks were generated so as to avoid bias incurred from proteins previously used in the FP assays. […]

PIK3R1-N SH2 domain [3] = target: T1, PIK3R1-N SH2 domain; assay: biochemical; format: binding; conditions: FP, PIK3R1-N; mean; NA = no interaction detected
PIK3R3-C SH2 domain [4] = target: T2, PIK3R3-C SH2 domain (Homo sapiens, UniProt Q92569); assay: Surface plasmon resonance (Biacore 3000); format: binding; conditions: SPR, NA = no interaction detected
T2 construct: thioredoxin; made in house; host or cells: E. coli BL21(DE3)pLysS
Method: as §1
A randomly selected set of 12 recombinant SH2 domain proteins and unlabeled (rhodamine dye free) peptides (9 ErbB, 2 GAB1, 2 KIT, 2 MET) were generated for the surface plasmon resonance (SPR) validation study. The 6X His-tagged SH2 domain proteins used in the assay, PLCG1-C, SHC4, VAV2, TNS3, PIK3R3-C, SYK-C, PIK3R1-N, SUPT6H, CRKL, TEC, SHB, and SHC3 were produced and purified as previously described (see “SH2 and PTB domain proteins” section and Jones et al., 2006). Fresh protein stocks were generated so as to avoid bias incurred from proteins previously used in the FP assays. 13-mer peptides corresponding to ErbB1 pY801, ErbB1 pY900, ErbB1 pY978, ErbB1 pY1069, ErbB2 pY685, ErbB pY803, ErbB3 pY912, ErbB4 pY833, ErbB4 pY906, GAB1 pY183, GAB1 pY472, KIT pY570, KIT pY936, MET pY1093 and MET pY1313, were synthesized successfully for the assay using previously described approaches (see “FP competitor peptide synthesis” section). For SPR detection via the Biacore 3000 (GE HealthCare, Piscataway, NJ), His-tagged SH2 domains were immobilized on Biacore NTA sensor chips (GE HealthCare, Piscataway, NJ) pre-charged with Ni^2+ ions in one flow cell while the second served as a negative control reference cell. Peptides were introduced in solution phase to both cells and relative response units (RUs) were recorded from output sensograms. Nine concentrations of peptide and a buffer control, in duplicate, were used to determine KDs using the equilibrium method (best-fit simultaneous modeling for peptide association and disassociation curves).

PIK3R3-C SH2 domain [5] = target: T2, PIK3R3-C SH2 domain; assay: biochemical; format: binding; conditions: FP, PIK3R3-C; mean; NA = no interaction detected
GRB7 SH2 domain [6] = target: T3, GRB7 SH2 domain (Homo sapiens, UniProt Q14451); assay: FP competition assay; format: binding; set-up: 6X His; thioredoxin; made in house; host or cells: E. coli BL21(DE3)pLysS; conditions: labeled peptide ErbB3pY1197, Fig. 3 graph C, read-out: Ki (obs)
T3 sequence (Q14451 431-527 limits assumed): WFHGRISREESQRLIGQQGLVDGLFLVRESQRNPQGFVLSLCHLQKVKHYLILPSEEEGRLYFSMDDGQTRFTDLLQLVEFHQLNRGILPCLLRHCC
Method: (§3) Unlabeled phosphopeptides were synthesized with some modifications to the previously described protocol. […] Unlabeled competitor peptides were prepared at 11 serial 1∶3 dilutions in assay buffer; one control with no unlabeled competitor peptides was also included with each experimental set. The fluorescent peptide, protein, and unlabeled peptide mixtures were allowed to incubate for a minimum of 20 minutes in 384-well plates and polarization signals were measured using the Analyst GT multimode reader as previously described above. Inhibition curves were constructed by four-parameter log-logistic regression using the “drc” package in R with the parameters for maximum and minimum fluorescence fixed according to Z’ factor positive and negative control values. IC50 values were estimated from these fits under a one-site competition binding model and Ki calculated according to the equation developed by.

RASA1-N SH2 domain [7] = target: T4, RASA1-N SH2 domain (Homo sapiens, UniProt P20936); assay: FP competition assay; format: binding; set-up: 6X His; thioredoxin; made in house; host or cells: E. coli BL21(DE3)pLysS; conditions: RASA1N, Fig. 3 graph A, read-out: Ki (obs)
T4 sequence (P20936 181-272 limits assumed): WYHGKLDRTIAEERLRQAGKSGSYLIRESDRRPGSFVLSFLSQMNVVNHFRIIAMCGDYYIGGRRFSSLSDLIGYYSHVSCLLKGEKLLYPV
Method: as §3

RASA1-N SH2 domain [8] = target: T4, RASA1-N SH2 domain; assay: FP saturation binding assay
GRB7 SH2 domain [9] = target: T3, GRB7 SH2 domain; assay: FP saturation binding assay; conditions: read-out: Ki ( exp FP); competing peptide, GRB7; Ki expected from FP; NI = no interaction
SRC SH2 domain = target: T5, SRC SH2 domain (Homo sapiens, UniProt P12931); assay: FP competition assay; format: binding; conditions: labeled peptide ErbB3pY1222, Fig. 3 graph B, read-out: Ki (obs)
T5 construct: between the c-Src SH2 domain and ErbB1 in our FP assay; 6X His; thioredoxin; made in house; host or cells: E. coli BL21(DE3)pLysS
T5 sequence (P12931 151-248 limits assumed): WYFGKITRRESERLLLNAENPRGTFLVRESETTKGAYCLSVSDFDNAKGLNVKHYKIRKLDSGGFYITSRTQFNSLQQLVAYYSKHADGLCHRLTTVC
Method: as §3

SHC3 SH2 domain [10] = target: T6, SHC3 SH2 domain (Homo sapiens, UniProt Q92529); assay: Surface plasmon resonance (Biacore 3000); format: binding; set-up: A randomly selected set of 12 recombinant SH2 domain proteins; thioredoxin; made in house; host or cells: E. coli BL21(DE3)pLysS; conditions: SPR, NA = no interaction detected
T6 sequence (Q92529 499-590 limits assumed): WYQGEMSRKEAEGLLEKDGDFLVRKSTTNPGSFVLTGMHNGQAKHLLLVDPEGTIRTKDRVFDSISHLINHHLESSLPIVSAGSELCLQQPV
Method: as §1, §2

SHC3 SH2 domain [11] = target: T6, SHC3 SH2 domain; assay: FP saturation binding assay
TNS3 SH2 domain = target: T7, TNS3 SH2 domain (Homo sapiens, UniProt Q68CZ2); assay: FP saturation binding assay
T7 sequence (Q68CZ2 1172-1282 limits assumed): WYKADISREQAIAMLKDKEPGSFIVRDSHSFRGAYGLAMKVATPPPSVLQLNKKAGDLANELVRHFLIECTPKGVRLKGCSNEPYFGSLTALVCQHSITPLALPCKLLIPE

SH2 and PTB domains = assay: In-house protein microarrays (with or without 5 mM DTT), protein named per line; format: binding, human; conditions: in-house protein microarray, protein named in c0 of the line, sheet ErbB4 pY733 (18-mer)
Method: 300 pL of purified recombinant proteins and a thioredoxin tag control were spotted at a concentration of ∼40 µM in duplicate onto aldehyde-coated microscope slides (Erie Scientific Company, Portsmouth, NH) using a Nano-Plotter (NP) 2.1/E noncontact microarrayer (GeSiM, Munich, Germany). 16 identical microarrays per slide were printed in a 2×8 (column by row) format with distances of 9 mm between individual arrays; each array consisted of a 14×14 configuration of spots 400 µm apart. Following printing at a constant humidity level of 50%, slides were desiccated overnight and stored at −80°C. For peptide probing, array slides were transferred to 96-well microplates (TeleChem International, Inc., Sunnyvale, CA) and sandwiched with silicone gaskets. Prior to peptide addition, aldehyde sites were quenched with buffer B (20 mM HEPES, 100 mM KCl, 0.1% Tween-20, 5 mM DTT, pH 7.8) containing 1% bovine serum albumin (BSA) (w/v) for one hour at room temperature; moderate agitation was applied in a plate shaker (IKA, Germany) to displace glycerol from the surface area of protein sample spots. […] The arrays were subsequently washed once with 300 µL of buffer B and once with 300 µL of ddH2O. Residual water was removed by centrifugation; slides were stored under desiccation in the dark until analysis.
Microarray slides were scanned at a resolution of 10 µm using a GenePix 4000B microarray scanner and analyzed using GenePix Pro v6.0 software (Molecular Devices, Sunnyvale, CA). To independently visualize protein spots irrespective of peptide binding, samples were printed simultaneously with 400 nM of Cyanine-5 (Cy5) labeled bovine serum albumin (BSA). […] Following spot layout identification via Cy5 labeled BSA, the mean fluorescence intensity of rhodamine for duplicate protein spots was quantified and normalized by subtracting the corresponding mean fluorescence intensity of thioredoxin. Normalized fluorescence values were then imported into MATLAB and KDs determined as previously described.

PIK3R2-NC tandem SH2 domains, sequence (O00459 330-716 limits assumed): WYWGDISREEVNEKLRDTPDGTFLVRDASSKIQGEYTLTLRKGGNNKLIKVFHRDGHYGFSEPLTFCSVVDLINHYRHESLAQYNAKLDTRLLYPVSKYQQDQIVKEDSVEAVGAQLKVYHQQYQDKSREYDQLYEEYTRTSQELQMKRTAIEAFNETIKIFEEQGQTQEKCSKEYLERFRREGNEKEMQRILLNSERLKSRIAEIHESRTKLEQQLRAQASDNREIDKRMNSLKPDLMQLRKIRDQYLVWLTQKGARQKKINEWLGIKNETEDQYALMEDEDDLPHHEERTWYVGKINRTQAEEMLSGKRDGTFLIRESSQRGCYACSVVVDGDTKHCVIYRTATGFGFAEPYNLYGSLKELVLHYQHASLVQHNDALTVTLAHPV

**Q.** What does the source list for CC(C)C[C@H](NC(=O)[C@H](CCC(=O)O)NC(=O)[C@H](Cc1c[nH]c2ccccc12)NC(=O)[C@@H](NC(=O)[C@@H](NC(=O)[C@@H](NC(=O)CNC(=O)[C@H](Cc1ccc(O)cc1)NC(=O)[C@H](CO)NC(=O)[C@H](Cc1c[nH]c2ccccc12)NC(=O)[C@@H](NC(=O)[C@@H](N)CC(=O)O)C(C)C)C(C)C)[C@@H](C)O)C(C)C)C(=O)N[C@@H](CC(=O)O)C(=O)O [ErbB1 Y900 (non-phospho)]?
**A.** Kd [1]: 6930 nM; Kd (SHC2-PTB domain): 5420 nM

**Q.** How did the Kd (PIK3R1-N SH2 domain [2]) turn out when CC[C@H](C)[C@H](NC(=O)[C@@H](N)CCCCN)C(=O)N[C@@H](CCCNC(=N)N)C(=O)N[C@@H](CCCCN)C(=O)N[C@@H](Cc1ccc(OP(=O)(O)O)cc1)C(=O)N[C@H](C(=O)N[C@@H](CCSC)C(=O)N[C@@H](CCCNC(=N)N)C(=O)N[C@@H](CCCNC(=N)N)C(=O)N[C@@H](CC(C)C)C(=O)N[C@@H](CC(C)C)C(=O)N[C@@H](CCC(N)=O)C(=O)N[C@@H](CC(=O)O)C(=O)O)[C@@H](C)O [ErbB2 685] (HELM PEPTIDE1{K.I.R.K.[O=C([C@H](Cc1ccc(OP(=O)(O)O)cc1)N[*:1])[*:2]].T.M.R.R.L.L.Q.D}$$$$V2.0) was run?
**A.** 13400 nM

**Q.** And the Kd (PIK3R1-N SH2 domain [3])?
**A.** 2510 nM

**Q.** And the Kd (PIK3R3-C SH2 domain [4])?
**A.** 1520 nM

**Q.** What about the Kd (PIK3R3-C SH2 domain [5]) of the same molecule?
**A.** 4430 nM

**Q.** Which results are given for CC(C)C[C@H](NC(=O)[C@H](Cc1ccc(OP(=O)(O)O)cc1)NC(=O)[C@H](CCC(=O)O)NC(=O)[C@@H]1CCCN1C(=O)[C@H](CC(N)=O)NC(=O)[C@@H](N)CCC(=O)O)C(=O)N[C@H](C(=O)N1CCC[C@H]1C(=O)N[C@@H](CCC(N)=O)C(=O)NCC(=O)NCC(=O)N[C@@H](C)C(=O)N[C@@H](CC(=O)O)C(=O)O)[C@@H](C)O [ErbB2 pY1196]?
**A.** Ki (GRB7 SH2 domain [6]): 10900 nM; Ki (RASA1-N SH2 domain [7]; labeled peptide ErbB2pY1196): 2290 nM; Ki (RASA1-N SH2 domain [7]; labeled peptide ErbB3pY1307): 3540 nM; Kd (RASA1-N SH2 domain [8]): 1860 nM; Ki (GRB7 SH2 domain [9]): > 20000 nM

**Q.** For CSCC[C@H](NC(=O)[C@H](Cc1ccc(O)cc1)NC(=O)[C@H](CCC(=O)O)NC(=O)[C@H](Cc1ccc(OP(=O)(O)O)cc1)NC(=O)CNC(=O)[C@H](CC(C)C)NC(=O)[C@H](CCC(=O)O)NC(=O)[C@@H](N)CCC(=O)O)C(=O)N[C@@H](CC(=O)O)C(=O)N[C@H](C(=O)NCC(=O)N[C@@H](CO)C(=O)N[C@@H](CC(=O)O)C(=O)O)C(C)C [ErbB3 pY1222] (HELM PEPTIDE1{E.E.L.G.[O=C([C@H](Cc1ccc(OP(=O)(O)O)cc1)N[*:1])[*:2]].E.Y.M.D.V.G.S.D}$$$$V2.0), which Ki (SRC SH2 domain) is on record?
**A.** 2360 nM

**Q.** For CC[C@H](C)[C@H](NC(=O)[C@@H](NC(=O)[C@@H](NC(=O)CNC(=O)[C@H](Cc1ccc(OP(=O)(O)O)cc1)NC(=O)[C@H](CO)NC(=O)[C@H](Cc1c[nH]c2ccccc12)NC(=O)[C@@H](NC(=O)[C@@H](N)CC(=O)O)C(C)C)C(C)C)[C@@H](C)O)C(=O)N[C@@H](Cc1c[nH]c2ccccc12)C(=O)N[C@@H](CCC(=O)O)C(=O)N[C@@H](CC(C)C)C(=O)N[C@@H](CC(=O)O)C(=O)O [ErbB4 906] (HELM PEPTIDE1{D.V.W.S.[O=C([C@H](Cc1ccc(OP(=O)(O)O)cc1)N[*:1])[*:2]].G.V.T.I.W.E.L.D}$$$$V2.0), which Kd (SHC3 SH2 domain [10]) is on record?
**A.** 6710 nM

**Q.** What about the Kd (SHC3 SH2 domain [11]) of the same molecule?
**A.** 540 nM

**Q.** What about the Kd (PIK3R3-C SH2 domain [4]) of the same molecule?
**A.** 566 nM

**Q.** And the Kd (PIK3R3-C SH2 domain [5])?
**A.** 1840 nM

**Q.** What about the Kd (TNS3 SH2 domain) of the same molecule?
**A.** 800 nM

**Q.** What does the source list for “LGSGAFGTVpYKGIWVPEd [ErbB4 pY733 (18-mer), N-terminally rhodamine-labeled 18-mer phosphopeptide]”?
**A.** Kd (SH2 and PTB domains; PM Assay Replicate # 39307, Array Fabrication # 39320): 800 nM and 400 nM; Kd (SH2 and PTB domains; PM Assay Replicate # 39334, Array Fabrication # 39329): 790 nM
